# Results from patent US4552874A, “Pyrazolooxazines, pyrazolothiazines, and pryazoloquinolines and their use as medicaments” (Bayer Aktiengesellschaft, priority 1982, dated 1985).
# Assays:
# cyclooxygenase = settings: cited from earlier work
# Lipoxygenase in platelet = target: T1, Lipoxygenase in platelet (Homo sapiens, UniProt P18054); experiment: Inhibition of lipoxygenase in washed human platelets (HETE synthesis from radioactively labelled arachidonic acid); assay type: cell-based; settings: in vitro
# T1 construct: the metabolism of radioactively labelled arachidonic acid on washed human platelets is used; endogenous in cells; host or cells: washed human platelets
# T1 sequence (P18054 1-663): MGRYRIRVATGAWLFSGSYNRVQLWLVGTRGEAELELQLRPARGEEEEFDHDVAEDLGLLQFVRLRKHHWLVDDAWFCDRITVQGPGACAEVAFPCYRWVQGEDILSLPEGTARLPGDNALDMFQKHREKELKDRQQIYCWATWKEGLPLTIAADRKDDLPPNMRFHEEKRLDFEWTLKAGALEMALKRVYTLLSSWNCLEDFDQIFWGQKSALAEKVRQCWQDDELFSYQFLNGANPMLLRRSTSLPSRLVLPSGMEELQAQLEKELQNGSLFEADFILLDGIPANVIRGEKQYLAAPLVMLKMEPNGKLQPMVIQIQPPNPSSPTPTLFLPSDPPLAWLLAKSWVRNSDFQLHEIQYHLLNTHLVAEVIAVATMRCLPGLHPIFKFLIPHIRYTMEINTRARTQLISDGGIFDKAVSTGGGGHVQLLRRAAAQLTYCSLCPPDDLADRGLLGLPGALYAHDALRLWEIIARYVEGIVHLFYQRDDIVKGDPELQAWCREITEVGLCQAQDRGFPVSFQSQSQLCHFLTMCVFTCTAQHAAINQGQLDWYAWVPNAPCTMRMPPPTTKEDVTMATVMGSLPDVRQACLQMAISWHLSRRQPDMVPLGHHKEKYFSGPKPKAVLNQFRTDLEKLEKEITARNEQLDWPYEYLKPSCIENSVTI
# Procedure: In this test method, the metabolism of radioactively labelled arachidonic acid on washed human platelets is used. In this in vitro test, the radioactively labelled metabolites are extracted from the reaction mixture and separated by thin-layer chromatography. The autoradiogram is evaluated on a thin-layer scanner. Under these test conditions, the labelled metabolites are separated from the unreacted arachidonic acid and can then be evaluated quantitatively. The distribution of radioactivity over the products of cyclooxygenase formed during the metabolism, thromboxane B2 (TXB2) and 12-hydroxy-5,8,10-heptadecatrienoic acid (HHT) and the product of lipoxygenase, 12-hydroxy-5,8,11,14-eicosatetraenoic acid (HETE), under the influence of the inhibitors provides a measure of the inhibition of the enzymes.
# The inhibition of lipoxygenase by the compounds according to the invention can be measured by the inhibition of synthesis of HETE. It emerges that the synthesis of TXB2 and of HHT remains unaffected, whilst the conversion of arachidonic acid decreases. […] (Compare Table 1).
# [1] = test system: Lipoxygenase in PMN Leucocytes; experiment: Inhibition of lipoxygenase in PMN leucocytes (liberation of 5-HETE and leukotriene B4); assay type: cell-based, humans and rabbits; settings: in vitro
# Procedure: The polymorphonuclear leucocytes of humans and of rabbits metabolise arachidonic acid to 5-hydroxy-5,8,11,14-eicosatetraenoic acid (5-HETE) and leukotriene B4 (5S, 12R-dihydroxy-6 cis, 8,10-trans-14 cis-eicosatetraenoic acid). The inhibition of the liberation of 5-HETE and leukotriene B4 from the leucocytes provides a measure of the lipoxygenase-inhibitory effect of the compounds according to the invention. (Compare Table 1).
# The test with human leucocytes is carried out by the method of Borgeat and Samuelsson (j. Biol. Chem. 254; 2643, 1979 and Proc. Natl. Acad. Sci. USA, 76, 2148 (1979), and with rabbit leucocytes by the method of Walker and Parish (Inter. Archs. Allergy appl. Immun. 66, 83, 1981).
# [2] = test system: prostacyclin synthesis in strips of rabbit aorta; experiment: Stimulation of prostacyclin synthesis in strips of rabbit aorta; assay type: cell-based; settings: Oryctolagus cuniculus, 1 h, read-out: Stimulation in % compared to control (prostacyclin synthesis); for activation at 2 µg/mL: 2.10^6 g/ml of substance
# melanoma B 16 = experiment: Inhibition of the initiation of pulmonary metastases in melanoma B 16; assay type: in vivo; settings: melanoma B 16, mouse, three i.p. administrations of 1 mg/kg
# Description: The compounds according to the invention are also active in vivo. […] The compounds according to the invention also reduce the formation of oedema in the model of carrageenan inflammation, (compare Table 3) and inhibit the formation of metastases from B-16 melanoma (method of Honn, et. al. Science 212, 1270, 1981).
# [3] = systemic administration (for example orally); cited from earlier work
Minimum concentration (g/ml) for inhibition of Lipoxygenase in platelet (Lipoxygenase in platelet),Structure (SMILES),Minimum concentration (g/ml) for inhibition of Lipoxygenase in PMN Leucocytes [1],other results
–,"CCCCCC#CCC#CCC#CCC#CCCCC(=O)O [5,8,11,14-eicosatetraynoic acid]",–,"action of known lipoxygenase inhibitors, in words (cyclooxygenase): either also act as inhibitors of cyclooxygenase or only act at very high concentrations"
10^-6 g/ml,Cc1ccc2c(c1)Nc1[nH]ncc1S2,10^-6 g/ml,–
10^-6 g/ml,c1ccc2cc3c(cc2c1)Nc1[nH]ncc1O3 [drawing 29],10^-6 g/ml,–
–,c1ccc2c(c1)Nc1[nH]ncc1S2 [Compound 12],–,activation at 2 µg/mL [2]: 80%
–,c1ccc2cc3c(cc2c1)Nc1[nH]ncc1O3 [Compound 18],–,% Inhibition of the initiation of pulmonary metastases (melanoma B 16): 36%
10^-6 g/ml,Cn1ncc2c1Nc1cc(Cl)ccc1O2,10^-6 g/ml,–
10^-6 g/ml,Cn1ncc2c1Nc1ccccc1O2,10^-6 g/ml,–
–,NC1=NN(c2cccc(C(F)(F)F)c2)CC1 [3-amino-1-(m-trifluoromethylphenyl)-2-pyrazoline],–,"action of known lipoxygenase inhibitors, in words (cyclooxygenase): either also act as inhibitors of cyclooxygenase or only act at very high concentrations; toxic side effects, in words [3]: toxic side effects on systemic administration (for example orally)"
–,c1cnc2c(c1)Oc1cn[nH]c1N2 [Compound 17],–,activation at 2 µg/mL [2]: 200%
10^-6 g/ml,Clc1ccc2c(c1)Nc1[nH]ncc1O2 [drawing 13],10^-6 g/ml,–
10^-6 g/ml,Cc1ccc2c(c1)Nc1[nH]ncc1O2 [drawing 14],10^-6 g/ml,–
–,Cn1ncc2c1Nc1cc3ccccc3cc1O2 [Compound 19],–,% Inhibition of the initiation of pulmonary metastases (melanoma B 16): 30%
–,CC(Cc1ccc(O)c(O)c1)C(C)Cc1ccc(O)c(O)c1 (stereo not shown) [nordihydroguaiaretic acid],–,"action of known lipoxygenase inhibitors, in words (cyclooxygenase): either also act as inhibitors of cyclooxygenase or only act at very high concentrations"
–,CN1c2ccccc2Oc2cnn(C)c21 [Compound 24],–,activation at 10 µg/mL ([2]; at 10^-5 g/ml substance concentration): 100%
–,O=C1CCN(c2ccccc2)N1 [phenidone],–,"action of known lipoxygenase inhibitors, in words (cyclooxygenase): either also act as inhibitors of cyclooxygenase or only act at very high concentrations"
